Results on 20 compounds are retold here after the supplement of paper PMC11368000.

The subject of one assay is 1083 (donor line of iPSC-derived cardiomyocytes). The experiment in a line: POD (EC95) for loss of peak frequency (asystole) vs vehicle; higher = less potent (higher point of departure). To be noted: exposure time: 90 min. The method, then: (§1)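 Human iPSC-derived cardiomyocytes from 16 donors were exposed for 90 min at 37 °C to each PFAS at 0.1, 1, 10 and 100 µM in 0.5% DMSO, 384-well plates. Kinetic Ca2+ flux (FLIPR) and Hoechst nuclei counts were normalised to vehicle wells and fitted with a hierarchical Bayesian Hill model to give donor-specific PODs: EC05 for beat-rate increase or decrease and for decay-to-rise ratio increase (QT proxy), EC95 for peak-frequency loss (asystole), EC10 for total cell number loss. 0.03 µM is the lower bound.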
In turn, `O=S(=O)(O)CCC(F)(F)C(F)(F)C(F)(F)C(F)(F)C(F)(F)C(F)(F)C(F)(F)C(F)(F)F` [8:2 Fluorotelomer sulfonic acid] had a POD vs vehicle of more than 100 µM.
The same measure, in the same setting: under `O=C(O)C(F)(F)C(F)(F)C(F)(F)C(F)(F)C(F)(F)C(F)(F)C(F)(F)C(F)(F)Cl` [9-Chloro-perfluorononanoic_acid] stands more than 100 µM; under `O=P(O)(O)CCC(F)(F)C(F)(F)C(F)(F)C(F)(F)C(F)(F)C(F)(F)C(F)(F)C(F)(F)F` [((Perfluorooctyl)ethyl)phosphonic_acid], more than 100 µM; under `O=C([O-])C(F)(F)C(F)(F)C(F)(F)C(F)(F)C(F)(F)C(F)(F)C(F)(F)F.[NH4+]` [Ammonium_perfluorooctanoate], more than 100 µM.
Same read-out and setting: the result for `OCC(F)(F)C(F)(F)C(F)(F)C(F)(F)C(F)(F)C(F)F` [Dodecafluoroheptanol] reads 38.1 µM.
The same measure, in the same setting: the result for `OCC(F)(F)OC(F)(F)C(F)(F)OC(F)(F)C(F)(F)OC(F)(F)F` [Fluorinated_triethylene_glycol_monomethyl_ether] reads more than 100 µM; that for `OCC(F)(F)C(F)(F)C(F)(F)F` [Heptafluorobutanol], more than 100 µM; that for `NC(=O)C(F)(F)C(F)(F)C(F)(F)F` [Heptafluorobutyramide], more than 100 µM.
`OCC(F)(F)C(F)(F)C(F)(F)CO` [Hexafluoroamylene_glycol] returned a POD vs vehicle of more than 100 µM.
The same measure, in the same setting: the result for `COC(=O)C(F)(F)C(F)(F)OC(F)(C(F)(F)F)C(F)(F)OC(F)=C(F)F` (stereo not given) [Methyl_perfluoro(3-(1-ethenyloxypropan-2-yloxy)propanoate)] reads more than 100 µM.
The compound `NC(=O)C(F)(F)C(F)(F)C(F)(F)C(F)(F)F` [Nonafluoropentanamide] returned a POD vs vehicle of more than 100 µM.
In the case of `NC(=O)C(F)(F)C(F)(F)C(F)(F)C(F)(F)C(N)=O` [Octafluoroadipamide], the POD vs vehicle is more than 100 µM.
The same measure, in the same setting: the result for `O=C(O)C(F)(F)C(F)(F)C(F)(F)C(F)(F)C(=O)O` [Octafluoroadipic_acid] reads more than 100 µM; that for `O=C(O)C(F)(F)C(F)(F)C(F)(F)OC(F)(F)F` [Perfluoro(4-methoxybutanoic)_acid], more than 100 µM.
Take `O=C(O)C(F)(F)OC(F)(F)C(F)(F)OC(F)(F)C(F)(F)OC(F)(F)C(F)(F)C(F)(F)C(F)(F)F` [Perfluoro-3,6,9-trioxatridecanoic_acid]: the POD vs vehicle was 79.4 µM.
Take `O=C(O)C(F)(F)OC(F)(F)C(F)(F)OC(F)(F)F` [Perfluoro-3,6-dioxaheptanoic_acid]: the POD vs vehicle was more than 100 µM.
Still for that read-out and setting: under `O=C(O)C(F)(F)OC(F)(F)C(F)(F)OC(F)(F)C(=O)O` [Perfluoro-3,6-dioxaoctane-1,8-dioic_acid] stands more than 100 µM; under `O=C(O)C(F)(F)C(F)(F)OC(F)(F)F` [Perfluoro-3-methoxypropanoic_acid], more than 100 µM; under `O=C(O)C(F)(F)C(F)(F)C(F)(F)OC(F)(C(F)(F)F)C(F)(F)F` [Perfluoro-4-isopropoxybutanoic_acid], more than 100 µM.
On the same count and under the same terms, the result for `O=S(=O)(O)C(F)(F)C(F)(F)C(F)(F)C(F)(F)F` [Perfluorobutanesulfonic_acid] reads more than 100 µM.

The next assay relates to 1118 (donor line of iPSC-derived cardiomyocytes). The description is as above. To be noted: exposure time: 90 min. The method, then:
as §1
For the compound `O=S(=O)(O)CCC(F)(F)C(F)(F)C(F)(F)C(F)(F)C(F)(F)C(F)(F)C(F)(F)C(F)(F)F` [8:2 Fluorotelomer sulfonic acid], the POD vs vehicle was more than 100 µM.
For `O=C(O)C(F)(F)C(F)(F)C(F)(F)C(F)(F)C(F)(F)C(F)(F)C(F)(F)C(F)(F)Cl` [9-Chloro-perfluorononanoic_acid], the POD vs vehicle was 84.3 µM.
The same measure, in the same setting: the result for `O=P(O)(O)CCC(F)(F)C(F)(F)C(F)(F)C(F)(F)C(F)(F)C(F)(F)C(F)(F)C(F)(F)F` [((Perfluorooctyl)ethyl)phosphonic_acid] reads more than 100 µM; that for `O=C([O-])C(F)(F)C(F)(F)C(F)(F)C(F)(F)C(F)(F)C(F)(F)C(F)(F)F.[NH4+]` [Ammonium_perfluorooctanoate], more than 100 µM; that for `OCC(F)(F)C(F)(F)C(F)(F)C(F)(F)C(F)(F)C(F)F` [Dodecafluoroheptanol], 7.54 µM.
Compound `OCC(F)(F)OC(F)(F)C(F)(F)OC(F)(F)C(F)(F)OC(F)(F)F` [Fluorinated_triethylene_glycol_monomethyl_ether] displayed a POD vs vehicle of 9.61 µM.
Consider `OCC(F)(F)C(F)(F)C(F)(F)F` [Heptafluorobutanol], for which the POD vs vehicle was more than 100 µM.
Still for that read-out and setting: the result for `NC(=O)C(F)(F)C(F)(F)C(F)(F)F` [Heptafluorobutyramide] reads more than 100 µM.
Same read-out and setting: under `OCC(F)(F)C(F)(F)C(F)(F)CO` [Hexafluoroamylene_glycol] stands more than 100 µM; under `COC(=O)C(F)(F)C(F)(F)OC(F)(C(F)(F)F)C(F)(F)OC(F)=C(F)F` (stereo not given) [Methyl_perfluoro(3-(1-ethenyloxypropan-2-yloxy)propanoate)], more than 100 µM.
Still for that read-out and setting: under `NC(=O)C(F)(F)C(F)(F)C(F)(F)C(F)(F)F` [Nonafluoropentanamide] stands 84.9 µM; under `NC(=O)C(F)(F)C(F)(F)C(F)(F)C(F)(F)C(N)=O` [Octafluoroadipamide], more than 100 µM; under `O=C(O)C(F)(F)C(F)(F)C(F)(F)C(F)(F)C(=O)O` [Octafluoroadipic_acid], more than 100 µM.
Turning to `O=C(O)C(F)(F)C(F)(F)C(F)(F)OC(F)(F)F` [Perfluoro(4-methoxybutanoic)_acid], the POD vs vehicle was more than 100 µM.
On the same count and under the same terms, the result for `O=C(O)C(F)(F)OC(F)(F)C(F)(F)OC(F)(F)C(F)(F)OC(F)(F)C(F)(F)C(F)(F)C(F)(F)F` [Perfluoro-3,6,9-trioxatridecanoic_acid] reads 63.7 µM; that for `O=C(O)C(F)(F)OC(F)(F)C(F)(F)OC(F)(F)F` [Perfluoro-3,6-dioxaheptanoic_acid], more than 100 µM; that for `O=C(O)C(F)(F)OC(F)(F)C(F)(F)OC(F)(F)C(=O)O` [Perfluoro-3,6-dioxaoctane-1,8-dioic_acid], more than 100 µM.
Still for that read-out and setting: under `O=C(O)C(F)(F)C(F)(F)OC(F)(F)F` [Perfluoro-3-methoxypropanoic_acid] stands more than 100 µM; under `O=C(O)C(F)(F)C(F)(F)C(F)(F)OC(F)(C(F)(F)F)C(F)(F)F` [Perfluoro-4-isopropoxybutanoic_acid], more than 100 µM.
The same measure, in the same setting: under `O=S(=O)(O)C(F)(F)C(F)(F)C(F)(F)C(F)(F)F` [Perfluorobutanesulfonic_acid] stands more than 100 µM.

The test system of another assay is 11235 (donor line of iPSC-derived cardiomyocytes). Described as above. Particulars: exposure time: 90 min. The method, then:
as §1
Compound `O=S(=O)(O)CCC(F)(F)C(F)(F)C(F)(F)C(F)(F)C(F)(F)C(F)(F)C(F)(F)C(F)(F)F` [8:2 Fluorotelomer sulfonic acid] had a POD vs vehicle of more than 100 µM.
On the same count and under the same terms, under `O=C(O)C(F)(F)C(F)(F)C(F)(F)C(F)(F)C(F)(F)C(F)(F)C(F)(F)C(F)(F)Cl` [9-Chloro-perfluorononanoic_acid] stands 14.7 µM; under `O=P(O)(O)CCC(F)(F)C(F)(F)C(F)(F)C(F)(F)C(F)(F)C(F)(F)C(F)(F)C(F)(F)F` [((Perfluorooctyl)ethyl)phosphonic_acid], more than 100 µM; under `O=C([O-])C(F)(F)C(F)(F)C(F)(F)C(F)(F)C(F)(F)C(F)(F)C(F)(F)F.[NH4+]` [Ammonium_perfluorooctanoate], 72.4 µM.
`OCC(F)(F)C(F)(F)C(F)(F)C(F)(F)C(F)(F)C(F)F` [Dodecafluoroheptanol] yielded a POD vs vehicle of 48.1 µM.
In turn, `OCC(F)(F)OC(F)(F)C(F)(F)OC(F)(F)C(F)(F)OC(F)(F)F` [Fluorinated_triethylene_glycol_monomethyl_ether] had a POD vs vehicle of more than 100 µM.
In turn, `OCC(F)(F)C(F)(F)C(F)(F)F` [Heptafluorobutanol] yielded a POD vs vehicle of more than 100 µM.
`NC(=O)C(F)(F)C(F)(F)C(F)(F)F` [Heptafluorobutyramide] showed a POD vs vehicle of more than 100 µM.
For `OCC(F)(F)C(F)(F)C(F)(F)CO` [Hexafluoroamylene_glycol], the POD vs vehicle is more than 100 µM.
On the same count and under the same terms, under `COC(=O)C(F)(F)C(F)(F)OC(F)(C(F)(F)F)C(F)(F)OC(F)=C(F)F` (stereo not given) [Methyl_perfluoro(3-(1-ethenyloxypropan-2-yloxy)propanoate)] stands more than 100 µM.
